# In US20230073449A1, “STROMA-FREE T CELL DIFFERENTIATION FROM HUMAN PLURIPOTENT STEM CELLS” (THE CHILDREN'S MEDICAL CENTER CORPORATION, priority 2020, published 2023):
# Entries after “also recorded” stand apart in the source; their conditions may differ.
# Columns and labels:
# [1] = tested on: 5F cells (5F HSPCs); test: Primary screen of Cayman epigenetic library in 5F cells, stromal-free T cell differentiation (proT readout); assay type: cell-based, human; conditions: for CD5+ CD7+ %: 5F cells, control cells 11.60%; for CD5+ CD7+ % / Z score: e.g., at 500 nM; for Z score: calculated from the number of T progenitors after treatment, Z score greater than 3 = primary hit; for proT cells generated from 5F HSPCs after treatment with primary hits (fold change / number): first screen, FIG. 8
# Source text: FIG. 6 is a schematic showing a primary screen for small molecule inhibitors of epigenetic factors that promote T cell specification, using the stromal-free T cell differentiation methods as described herein. “5F cells” refer to cells expressing 5 transcription factors (HOXA9, ERG, RORA, SOX4, and MYB). The Cayman epigenetic library contains more than 140 small molecules that are known to modulate the activity of a variety of epigenetic ‘writers and erasers’ and ‘reader’ proteins. It may include compounds that modulate the activity of methyltransferases, demethylases, histone acetyltransferases, histone deacetylases, and acetylated histone binding proteins; see e.g., caymanchem.com/product/11076/epigenetics-screening-library-(96-well).
# FIG. 7 is a scatterplot showing identification of primary hits from the screen described in FIG. 6. Z scores were calculated for all the small molecules based on the number of T progenitors after treatment. Any small molecule with a Z score greater that 3 was considered as a primary hit. See e.g., Table 2.
# FIG. 8 is a bar chart showing fold change of the proT cells generated from 5F HSPCs after treatment with primary hits identified in FIG. 7 (see e.g., Table 2).
# (§1) A group of epigenetic regulators were tested for their ability to promote T cell differentiation. […] UNCO224 is an inhibitor of G9a/GLP, so a variety of other G9a/GLP inhibitors were tested.
# [2] = tested on: iPSC-derived CD34+ hemogenic endothelial (HE) cells; test: Second screen and dose response in wild type iPSC-derived CD34+ hemogenic endothelial (HE) cells, stromal-free T cell differentiation; assay type: cell-based, human; conditions: for proT cells generated from CD34+ HE cells after treatment with G9a inhibitors at different doses: FIG. 13B-13F; for Exemplary effective dose(s): promotion of T cell differentiation from CD34+ HE cells, 13B-13F
# Method: FIG. 9 is a schematic showing a second screen using wild type iPSC-derived CD34+ hemogenic endothelial (HE) cells (not 5F HSPCs, e.g., as used in […] and Table 2), to test small molecule inhibitors of epigenetic factors for promotion of T cell differentiation.
# FIG. 10A-10B is a series of graphs showing the results of the screen from FIG. 9. FIG. 10A is a scatterplot of Z scores, which were calculated for all the small molecules based on the number of T progenitors after treatment. Any small molecule with a Z score greater that 3 was considered as a primary hit. FIG. 10B is a bar graph showing verification of the primary hits. Primary hits were tested in triplicate.
# FIG. 12A is a schematic summarizing the experiments (see e.g., FIG. 6-11, Table 2). FIG. 12B is a bar chart showing fold change of proT cells generated from CD34^+ HE cells after treated with UNCO224 at different doses.
# FIG. 13A-13F is a series of schematics and graphs showing that G9 inhibitors promote T cell differentiation using the stromal-free differentiation methods as described herein. FIG. 13A is a schematic summarizing the experiments (see e.g., FIG. 6-12, Table 2). FIGS. 13B-13E are a bar charts showing fold change of proT cells generated from CD34^+ HE cells after treatment with other G9a inhibitors at different doses.
# as §1
# [3] = tested on: class I HDAC (e.g., HDAC1, HDAC2, HDAC3); conditions: cited from earlier work
# [4] = tested on: HDAC; conditions: pan-HDAC, with exception for HDAC6; cited from earlier work
# [5] = molecular target: class III isoenzyme SIRT1 (Homo sapiens, UniProt Q96EB6); conditions: cited from earlier work
# class III isoenzyme SIRT1, sequence (Q96EB6 whole entry): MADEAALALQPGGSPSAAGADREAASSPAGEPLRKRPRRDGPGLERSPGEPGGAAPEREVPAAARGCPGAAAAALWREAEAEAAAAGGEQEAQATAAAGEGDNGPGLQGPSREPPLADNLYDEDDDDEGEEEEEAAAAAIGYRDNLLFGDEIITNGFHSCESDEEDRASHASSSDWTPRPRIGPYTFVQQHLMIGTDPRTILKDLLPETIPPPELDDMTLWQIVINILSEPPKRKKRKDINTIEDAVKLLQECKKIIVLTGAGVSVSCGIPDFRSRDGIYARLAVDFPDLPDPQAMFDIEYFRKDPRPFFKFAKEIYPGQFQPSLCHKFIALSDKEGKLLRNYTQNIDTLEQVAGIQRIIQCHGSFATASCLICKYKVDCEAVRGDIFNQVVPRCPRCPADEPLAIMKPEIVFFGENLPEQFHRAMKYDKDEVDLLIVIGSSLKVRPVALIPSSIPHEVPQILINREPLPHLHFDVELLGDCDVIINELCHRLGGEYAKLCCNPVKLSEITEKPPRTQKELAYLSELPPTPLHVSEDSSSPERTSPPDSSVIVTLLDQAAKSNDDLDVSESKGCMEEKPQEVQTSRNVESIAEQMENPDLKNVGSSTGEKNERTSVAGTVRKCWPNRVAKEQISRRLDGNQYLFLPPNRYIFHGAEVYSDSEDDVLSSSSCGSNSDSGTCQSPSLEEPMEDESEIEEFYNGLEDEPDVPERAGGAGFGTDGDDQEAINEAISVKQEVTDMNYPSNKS
# [6] = tested on: CD34+ CD45+ HSPC cells; test: T cell differentiation of CD34+ CD45+ HSPCs after UNC0224 treatment; assay type: cell-based, human
# Method: (§2) FIG. 14A-14C is a series of schematics and graphs showing that UNCO224 enhances T cell commitment at expense of erythroid/myeloid potential. FIG. 14A is a schematic showing a test of whether UNCO224 specifically affects T cell differentiation. iPSC-derived CD34+ HE cells were treated with UNCO224 and differentiated into CD34+ CD45+ hematopoietic stem and progenitor cells (HSPC). These HSPCs were used to generate T cells, erythroid cells, and myeloid cells to determine their multipotency. FIG. 14B is a bar chart showing fold change of proT cells generated from CD34+ CD45+ HSPC cells after treatment with UNCO224 (500 nM). […] FIG. 14C is a bar chart showing number of different types of colonies generated from CD34+ CD45+ HSPCs in a colony-forming unit (CFU) assay. E, erythroid; M, macrophage; G, granulocyte; GM, granulocyte/macrophage; GEMM, granulocyte/erythroid/macrophage/megakaryocyte.
# FIG. 15A-15C is a series of graphs showing that UNCO224 promotes T cell specification rather than cell proliferation. FIG. 14B is a bar chart showing fold change of proT cells generated from CD34+ CD45+ HSPC cells after treatment with UNCO224 (500 nM). […] FIG. 14B is a bar chart showing fold change of total cell numbers after 14 days of T cell differentiation of CD34+ CD45+ HSPCs treated with DMSO or UNCO224. […] FIG. 14C is a bar chart showing the percentage of proT cells generated from CD34+ CD45+ HSPCs treated with DMSO or UNCO224. […] N=3, **** P≤0.0001.
# (§3) UNCO224 enhanced T cell commitment at expense of erythroid/myeloid potential. […] UNCO224 also promoted T cell specification rather than cell proliferation. […] Without wishing to be bound by theory, it is anticipated that H3K9 methylation mediates repression of lymphoid genes. As such, treatment with inhibitors of H3K9 methylation (see e.g., FIG. 6-16, Tables 2-3) promotes T cell differentiation, e.g., when using stromal-free T cell differentiation methods as described herein. Such H3K9 methylation inhibitors can be used in place of, or in combination with, inhibition of histone methyltransferases (e.g., EZH1 knockdown).
# [7] = tested on: CD34+ CD45+ HSPCs; test: Colony-forming unit (CFU) assay of CD34+ CD45+ HSPCs; assay type: cell-based, human; conditions: FIG. 14C
# Method: as §2
# as §3, with “Such H3K9 methylation inhibitors can be used in place of, or in combination with, inhibition of histone methyltransferases (e.g., EZH1 knockdown).” left out
# [8] = tested on: MDA-MB-231 cells; conditions: in MDA-MB-231 cells; cited from earlier work
Compound,CD5+ CD7+ % [1] [%],Z score [1],other results
O=C(CCCCCCC(=O)Nc1ccc(I)cc1)NO [4-iodo-SAHA],25.3,5.895,–
COc1cc2nc(N3CCCN(C)CC3)nc(NC3CCN(Cc4ccccc4)CC3)c2cc1OC [BIX01294],–,–,proT cells generated from CD34+ HE cells after treatment with G9a inhibitors at different doses [2]: capable of promoting T cell differentiation; also recorded: significantly increased; Exemplary effective dose(s) ([2]; FIG. 12B): 200 nM
COC(=O)c1ccc2c(c1)nc(NC(=O)c1ccccc1)n2CCCc1ccccc1 [BRD4770],–,–,proT cells generated from CD34+ HE cells after treatment with G9a inhibitors at different doses [2]: capable of promoting T cell differentiation; also recorded: significantly increased; Exemplary effective dose(s) ([2]; FIG. 12B): 200 nM
CN(C)c1ccc(C(=O)NCCCCCC(=O)NO)cc1 [CAY10398],36.9,4.181,–
COCCCn1c(N)c(C(=O)NC2CCCC2)c2nc3ccccc3nc21 [CAY10591],25.9,8.576,proT cells generated from 5F HSPCs after treatment with primary hits (fold change / number) [1]: significantly increased; also recorded: confirmed to promote T cell specification
Cn1cc(/C=C/C(=O)c2cccc(F)c2)cc1/C=C/C(=O)NO [MC1568],14.0,5.829,"proT cells generated from 5F HSPCs after treatment with primary hits (fold change / number) [1]: significantly increased; also recorded: confirmed to promote T cell specification; inhibition of class I HDAC activity [3]: Class II HDAC (e.g., HDAC4 and HDAC5) inhibitor. Displays no inhibition of class I HDAC activity (e.g., HDAC1, HDAC2, HDAC3)."
O=C(CCCCCCC(=O)Nc1cccnc1)NO [Pyroxamide],11.6,3.122,–
CNCc1ccc(-c2[nH]c3cc(F)cc4c3c2CCNC4=O)cc1 [Rucaparib],37.2,0.4679,–
"O=C(CCCCCCC(=O)Nc1ccccc1)NO [SAHA, suberoylanilide hydroxamic acid]",34.7,7.987,–
CCCCc1nc2cc(/C=C/C(=O)NO)ccc2n1CCN(CC)CC [SB939],39.4,5.042,IC50 [4]: 40 to 140 nM; activity against SIRT1 [5]: no activity
Cc1cc(Nc2ccc(NC(=O)c3ccc(Nc4ccnc5ccccc45)cc3)cc2)nc(N)n1 [SGI-1027],19.9,0.09357,–
O=C(CCCCCN1C(=O)c2cccc3cccc(c23)C1=O)NO [Scriptaid],19.7,3.857,–
COc1cc2c(NC3CCN(C)CC3)nc(N3CCCN(C)CC3)nc2cc1OCCCN(C)C [UNC0224],15.0,3.475,"fold change of CD5+ CD7+ proT cells generated from CD34+ CD45+ HSPC cells ([6]; UNC0224 500 nM vs DMSO, FIG. 14B/15A): significant increase; fold change of total cell numbers ([6]; after 14 days of T cell differentiation, vs DMSO): significant decrease; percentage of CD5+ CD7+ proT cells ([6]; vs DMSO, N=3): significant increase; proT cells generated from 5F HSPCs after treatment with primary hits (fold change / number) ([1]; listed as UNCO224): significantly increased; also recorded: confirmed to promote T cell specification; number of erythroid or myeloid lineage colonies [7]: significant decrease; proT cells generated from CD34+ HE cells after treatment with G9a inhibitors at different doses [2]: capable of promoting T cell differentiation; fold change of proT cells generated from CD34+ HE cells at different doses ([2]; dose response, FIG. 12B): dose-dependent manner; proT cells generated from CD34+ HE cells (verification of primary hits) ([2]; second screen, primary hits tested in triplicate, FIG. 10B, listed as UNCO224): significantly increased; also recorded: significant increase"
COc1cc2c(NC3CCN(CC4CCCCC4)CC3)nc(N3CCCN(C(C)C)CC3)nc2cc1OCCCN1CCCCC1 [UNC0631],–,–,IC50 [8]: 25 nM
COc1cc2c(NC3CCN(C(C)C)CC3)nc(C3CCCCC3)nc2cc1OCCCN1CCCC1 [UNC0638],–,–,proT cells generated from CD34+ HE cells after treatment with G9a inhibitors at different doses [2]: capable of promoting T cell differentiation; also recorded: significantly increased; Exemplary effective dose(s) ([2]; FIG. 12B): 8 nM
COc1cc2c(NC3CCN(C(C)C)CC3)nc(N3CCC(F)(F)CC3)nc2cc1OCCCN1CCCC1 [UNC0642],–,–,proT cells generated from CD34+ HE cells after treatment with G9a inhibitors at different doses [2]: capable of promoting T cell differentiation; also recorded: significantly increased; Exemplary effective dose(s) ([2]; FIG. 12B): 40 nM
COc1cc2c(NC3CCN(C4CCCCC4)CC3)nc(N3CCCN(C(C)C)CC3)nc2cc1OCCCN1CCCCC1 [UNC0646],–,–,IC50 [8]: 26 nM
CC(C)C(C(=O)Nc1ccc(C(=O)NO)cc1)c1ccccc1 (stereo not shown) [s-HDAC-42],43.2,4.263,–
Oxamflatin [Oxaflatin],12.4,6.54,–
